{"source": "patent US20030139391A1", "about": "(priority 2000, published 2003)", "key": {"[1]": {"tested_on": "Patients diagnosed with Alzheimer's Disease", "experiment": "ADCS/ADL scale in 5-month slow-titration trial", "format": "in vivo, human", "excerpt": "Subjects in the Placebo group received 21 weeks (5 months) of placebo medication.\nThe ADCS/ADL scale is a 23-item informant-based assessment scale measuring widely applicable daily activities appropriate for patients in the mild to moderate category of Alzheimer's Disease. The 23 items were selected for measurement from the larger set of 45 items studied by Galasko et al (Alzheimer Disease and Associated Disorders, Vol 11, Suppl. 2, 1997). These individual items were scored from 0-3 to […], depending on the question, with a possible total score of 78. A higher score indicated a higher functioning patient.\nAn additional secondary indication captures overall changes in Activities of daily Living (ADL) performances as measured by the Alzheimer's Disease Cooperative Study Activities of Daily Living (ACDS/ADL) scale. As mentioned above this scale is comprised of 23 items that have been tested and validated in patients with mild to moderately severe Alzheimer's disease."}, "[2]": {"tested_on": "patients", "experiment": "Side effects and dropout in earlier studies with shorter titration", "format": "in vivo, human", "settings": "for Abdominal Pain: % / Abdominal Pain: number / Diarrhea: % / Diarrhea: number / Dyspepsia: % / Dyspepsia: number / Gastro-intestinal System Disorders, Adverse events: % / Gastro-intestinal System Disorders, Adverse events: number / Nausea: % / Nausea: number / Vomiting: % / Vomiting: number: shorter titration", "excerpt": "In contrast with earlier studies with a shorter titration of the drug the incidence of side effects, particularly gastro-intestinal system disorders, were […]. A example of this is shown below in Table 11."}}, "note": "Marks after values point to notes of the source that are not given here."}
{"compound": "COc1ccc2c3c1O[C@H]1C[C@@H](O)C=C[C@@]31CCN(C)C2", "note": "[GAL, galantamine]", "values": [{"measurement": "Change in Total ADL score from baseline at Month 5, Mean (SE)", "setting": "[1]; LOCF, 8 mg/day", "result": "−3.2 (0.79)"}, {"measurement": "Change in Total ADL score from baseline at Month 5, Mean (SE)", "setting": "[1]; LOCF, 24 mg/day", "result": "−1.5 (0.56)**"}, {"measurement": "Change in Total ADL score from baseline at Month 5, Mean (SE)", "setting": "[1]; observed case, 8 mg/day", "result": "−3.1 (0.91)"}, {"measurement": "Change in Total ADL score from baseline at Month 5, Mean (SE)", "setting": "[1]; observed case, 16 mg/day", "result": "−0.5 (0.55)***^†"}, {"measurement": "Change in Total ADL score from baseline at Month 5, Mean (SE)", "setting": "[1]; observed case, 24 mg/day", "result": "−1.6 (0.61)**"}, {"measurement": "Abdominal Pain: %", "setting": "[2]; 18 mg", "result": 2.3, "unit": "%"}, {"measurement": "Abdominal Pain: number", "setting": "[2]; 18 mg", "result": 2}, {"measurement": "Diarrhea: %", "setting": "[2]; 18 mg", "result": 2.3, "unit": "%"}, {"measurement": "Diarrhea: number", "setting": "[2]; 18 mg", "result": 2}, {"measurement": "Dyspepsia: %", "setting": "[2]; 18 mg", "result": 5.7, "unit": "%"}, {"measurement": "Dyspepsia: number", "setting": "[2]; 18 mg", "result": 5}, {"measurement": "Gastro-intestinal System Disorders, Adverse events: %", "setting": "[2]; 18 mg", "result": 31.8, "unit": "%"}, {"measurement": "Gastro-intestinal System Disorders, Adverse events: number", "setting": "[2]; 18 mg", "result": 28}, {"measurement": "Nausea: %", "setting": "[2]; 18 mg", "result": 17.0, "unit": "%"}, {"measurement": "Nausea: number", "setting": "[2]; 18 mg", "result": 15}, {"measurement": "Vomiting: %", "setting": "[2]; 18 mg", "result": 17.0, "unit": "%"}, {"measurement": "Vomiting: number", "setting": "[2]; 18 mg", "result": 15}, {"measurement": "Abdominal Pain: %", "setting": "[2]; 24 mg", "result": 7.4, "unit": "%"}, {"measurement": "Abdominal Pain: number", "setting": "[2]; 24 mg", "result": 36}, {"measurement": "Diarrhea: %", "setting": "[2]; 24 mg", "result": 9.6, "unit": "%"}, {"measurement": "Diarrhea: number", "setting": "[2]; 24 mg", "result": 47}, {"measurement": "Dyspepsia: %", "setting": "[2]; 24 mg", "result": 4.3, "unit": "%"}, {"measurement": "Dyspepsia: number", "setting": "[2]; 24 mg", "result": 21}, {"measurement": "Gastro-intestinal System Disorders, Adverse events: %", "setting": "[2]; 24 mg", "result": 49.0, "unit": "%"}, {"measurement": "Gastro-intestinal System Disorders, Adverse events: number", "setting": "[2]; 24 mg", "result": 239}, {"measurement": "Nausea: %", "setting": "[2]; 24 mg", "result": 35.2, "unit": "%"}, {"measurement": "Nausea: number", "setting": "[2]; 24 mg", "result": 172}, {"measurement": "Vomiting: %", "setting": "[2]; 24 mg", "result": 19.1, "unit": "%"}, {"measurement": "Vomiting: number", "setting": "[2]; 24 mg", "result": 93}, {"measurement": "Abdominal Pain: %", "setting": "[2]; 32 mg", "result": 8.4, "unit": "%"}, {"measurement": "Abdominal Pain: number", "setting": "[2]; 32 mg", "result": 59}, {"measurement": "Diarrhea: %", "setting": "[2]; 32 mg", "result": 12.9, "unit": "%"}, {"measurement": "Diarrhea: number", "setting": "[2]; 32 mg", "result": 91}, {"measurement": "Dyspepsia: %", "setting": "[2]; 32 mg", "result": 4.5, "unit": "%"}, {"measurement": "Dyspepsia: number", "setting": "[2]; 32 mg", "result": 32}, {"measurement": "Gastro-intestinal System Disorders, Adverse events: %", "setting": "[2]; 32 mg", "result": 55.8, "unit": "%"}, {"measurement": "Gastro-intestinal System Disorders, Adverse events: number", "setting": "[2]; 32 mg", "result": 393}, {"measurement": "Nausea: %", "setting": "[2]; 32 mg", "result": 37.6, "unit": "%"}, {"measurement": "Nausea: number", "setting": "[2]; 32 mg", "result": 265}, {"measurement": "Vomiting: %", "setting": "[2]; 32 mg", "result": 18.6, "unit": "%"}, {"measurement": "Vomiting: number", "setting": "[2]; 32 mg", "result": 131}, {"measurement": "dropout rate due to cholinergic side effects", "setting": "[2]; 36 mg daily in three doses, two week titration", "result": 50, "unit": "%"}, {"measurement": "Abdominal Pain: %", "setting": "[2]; 36 mg", "result": 1.9, "unit": "%"}, {"measurement": "Abdominal Pain: number", "setting": "[2]; 36 mg", "result": 1}, {"measurement": "Diarrhea: %", "setting": "[2]; 36 mg", "result": 3.7, "unit": "%"}, {"measurement": "Diarrhea: number", "setting": "[2]; 36 mg", "result": 2}, {"measurement": "Dyspepsia: %", "setting": "[2]; 36 mg", "result": "0 (0%)"}, {"measurement": "Dyspepsia: number", "setting": "[2]; 36 mg", "result": "0 (0%)"}, {"measurement": "Gastro-intestinal System Disorders, Adverse events: %", "setting": "[2]; 36 mg", "result": 50.0, "unit": "%"}, {"measurement": "Gastro-intestinal System Disorders, Adverse events: number", "setting": "[2]; 36 mg", "result": 27}, {"measurement": "Nausea: %", "setting": "[2]; 36 mg", "result": 37.0, "unit": "%"}, {"measurement": "Nausea: number", "setting": "[2]; 36 mg", "result": 20}, {"measurement": "Vomiting: %", "setting": "[2]; 36 mg", "result": 16.7, "unit": "%"}, {"measurement": "Vomiting: number", "setting": "[2]; 36 mg", "result": 9}, {"measurement": "Abdominal Pain: %", "setting": "[2]; flexable dose", "result": 1.9, "unit": "%"}, {"measurement": "Abdominal Pain: number", "setting": "[2]; flexable dose", "result": 18}, {"measurement": "Diarrhea: %", "setting": "[2]; flexable dose", "result": 14.6, "unit": "%"}, {"measurement": "Diarrhea: number", "setting": "[2]; flexable dose", "result": 38}, {"measurement": "Dyspepsia: %", "setting": "[2]; flexable dose", "result": 3.4, "unit": "%"}, {"measurement": "Dyspepsia: number", "setting": "[2]; flexable dose", "result": 9}, {"measurement": "Gastro-intestinal System Disorders, Adverse events: %", "setting": "[2]; flexable dose", "result": 51.0, "unit": "%"}, {"measurement": "Gastro-intestinal System Disorders, Adverse events: number", "setting": "[2]; flexable dose", "result": 133}, {"measurement": "Nausea: %", "setting": "[2]; flexable dose", "result": 32.2, "unit": "%"}, {"measurement": "Nausea: number", "setting": "[2]; flexable dose", "result": 84}, {"measurement": "Vomiting: %", "setting": "[2]; flexable dose", "result": 14.6, "unit": "%"}, {"measurement": "Vomiting: number", "setting": "[2]; flexable dose", "result": 38}]}
